The test system of one experiment is HCT116 dual cells. In words: HCT116 Cell Assay (Lucia luciferase reporter of Type I interferon induction). It is filed as cell-based, human. The conditions noted are these: pBR322/BstNI DNA transfection, Lucia luciferase at 48 h, relative to 10 uM compound 39. The text has this: HCT116 dual cells (Invivogen, San Diego, Calif., USA) are derived from the human HCT116 colorectal carcinoma cell line. Cells have been selected for the stable integration of SEAP and Luciferase reporter genes, which expression is under the control of 5 tandem response elements for NF-KB/AP1 and STAT1/STAT2, respectively. The cell line was used to monitor Type I interferon induction and subsequent signaling by measuring the activity of the Lucia luciferase secreted in the culture medium.
HCT116 cells were plated in 96-well plate(s) at 40,000 cells/well in 100 uL DMEM supplemented with 10% FBS and 25 mM Hepes (pH 7.2-7.5). After overnight settling, cells were treated with TREX1i for 4 h (maximum DMSO fraction was 0.1%) before 1.25 ug/mL pBR322/BstNI restriction digest (New England Biolabs, Ipswich, Mass., USA) was transfected with Lipofectamine LTX (ThermoFisher, Grand Island, N.Y., USA), according to product manual recommendations. Briefly, Lipofectamine LTX (0.4 uL/well) was diluted in OptiMEM (5 uL/well). pBR322/BstNI (100 ng/well) was diluted in OptiMEM (5 uL/well) before Plus reagent (0.1 uL/100 ng DNA) was added. After 5 min incubation at room temperature, the DNA mixture was mixed dropwise with the diluted Lipofectamine LTX. After an additional 10 min incubation, the transfection mix (10 uL/well) was added to the cells. Cells were maintained at 37° C. for 48 h before monitoring the Lucia Luciferase activity from the cell culture medium. EC50 values were calculated by comparing the measured luminescence relative to 10 uM compound 39 (100% inhibition) and no inhibitor (0% inhibition) controls using non-linear least-squares four parameter fits in either Genedata Screener or GraphPad Prism (GraphPad Software, Inc.).
On the technique in general: Reporter assays use an easily measured gene product as a stand-in for the process of interest.

The target in experiment [1] is T1, human TREX2 (residues M44-A279) (Homo sapiens, UniProt Q9BQ50).
T1 construct: human TREX2 (residues M44-A279, expressed in E. coli); His-TEV (His tag with TEV site) (N); made in house; host or cells: E. coli
T1 sequence (Q9BQ50 44-279 isoform Q9BQ50-1): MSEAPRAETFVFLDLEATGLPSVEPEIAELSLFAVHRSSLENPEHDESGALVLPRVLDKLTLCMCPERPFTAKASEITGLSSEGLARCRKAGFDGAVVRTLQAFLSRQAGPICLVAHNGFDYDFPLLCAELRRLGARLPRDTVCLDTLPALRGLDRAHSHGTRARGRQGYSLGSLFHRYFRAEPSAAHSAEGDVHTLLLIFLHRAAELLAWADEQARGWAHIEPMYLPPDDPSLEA
In words: TREX2 Biochemical Assay (fluorescence, dsDNA substrate degradation). The conditions noted are these: 2.5 nM TREX2, 60 nM dsDNA substrate, 25 minutes at room temperature. Here is the method:
Degradation of the dsDNA liberates free fluorophore to produce a fluorescent signal. Specifically, 7.5 μL of N-terminally His-Tev tagged human TREX2 (residues M44-A279, expressed in E. coli and purified in house) in reaction buffer (50 mM Tris (pH 7.4), 150 mM NaCl, 2 mM DTT, 0.1 mg/mL BSA, 0.01% (v/v) Tween-20 and 100 mM MgCl2) was added to a 384-well Black ProxiPlate Plus (Perkin Elmer) which already contained compound (150 nL) at varying concentrations as a 10 point dose-response in DMSO. To this was added 7.5 μL of dsDNA substrate (Strand A: 5′ TEX615/GCT AGG CAG 3′; Strand B: 5′ CTG CCT AGC/IAbRQSp (IDT)) in reaction buffer. Final concentrations were 2.5 nM TREX2, 60 nM dsDNA substrate in reaction buffer with 1.0% DMSO (v/v). After 25 minutes at room temperature, reactions were quenched by the addition of 5 μL of stop buffer (same as reaction buffer plus 200 mM EDTA). Final concentrations in the quenched reaction mixture were […] TREX2, 45 nM DNA and 50 mM EDTA in a volume of 20 μL. After a 5-minute incubation at room temperature, plates were read in a laser sourced Envision (Perkin-Elmer), measuring fluorescence at 615 nm following excitation w/570 nm light. IC50 values were calculated by comparing the measured fluorescence at 615 nm ratio relative to control wells pre-quenched w/stop buffer (100% inhibition) and no inhibitor (0% inhibition) controls as using non-linear least square four parameter fits and either Genedata or GraphPad Prism (GraphPad Software, Inc.).

The target of a further experiment is T2, full length human TREX1 (Homo sapiens, UniProt Q9NSU2).
T2 construct: N-terminally His-Tev tagged full length human TREX1; His-TEV (His tag with TEV site) (N); made in house; host or cells: E. coli
T2 sequence (Q9NSU2 1-314): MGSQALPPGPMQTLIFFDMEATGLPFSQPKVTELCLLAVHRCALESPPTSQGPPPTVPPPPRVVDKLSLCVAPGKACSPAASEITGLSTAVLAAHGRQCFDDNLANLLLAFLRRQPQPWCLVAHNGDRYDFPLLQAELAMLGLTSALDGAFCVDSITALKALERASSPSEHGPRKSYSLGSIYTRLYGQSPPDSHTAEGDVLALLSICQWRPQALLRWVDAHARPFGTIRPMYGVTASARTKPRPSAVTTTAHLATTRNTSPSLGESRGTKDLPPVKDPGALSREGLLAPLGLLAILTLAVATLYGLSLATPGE
The experiment in a line: TREX1 Biochemical Assay (fluorescence, dsDNA substrate degradation). The conditions noted are these: 150 pM TREX1, 60 nM dsDNA substrate, 25 minutes at room temperature. The procedure:
Degradation of the dsDNA liberates free fluorophore to produce a fluorescent signal. Specifically, 7.5 μL of N-terminally His-Tev tagged full length human TREX1 (expressed in E. coli and purified in house) in reaction buffer (50 mM Tris (pH 7.4), 150 mM NaCl, 2 mM DTT, 0.1 mg/mL BSA, 0.01% (v/v) Tween-20 and 100 mM MgCl2) was added to a 384-well Black ProxiPlate Plus (Perkin Elmer) which already contained compound (150 nL) at varying concentrations as a 10 point dose-response in DMSO. To this was added 7.5 μL of dsDNA substrate (Strand A: 5′ TEX615/GCT AGG CAG 3′; Strand B: 5′ CTG CCT AGC/IAbRQSp (Integrated DNA Technologies)) in reaction buffer. Final concentrations were 150 pM TREX1, 60 nM dsDNA substrate in reaction buffer with 1.0% DMSO (v/v). After 25 minutes at room temperature, reactions were quenched by the addition of 5 μL of stop buffer (same as reaction buffer plus 200 mM EDTA). Final concentrations in the quenched reaction were 112.5 pM TREX1, 45 nM DNA and 50 mM EDTA in a volume of 20 μL. After a 5-minute incubation at room temperature, plates were read in a laser sourced Envision (Perkin-Elmer), measuring fluorescence at 615 nm following excitation w/570 nm light. IC50 values were calculated by comparing the measured fluorescence at 615 nm ratio relative to control wells pre-quenched w/stop buffer (100% inhibition) and no inhibitor (0% inhibition) controls as using non-linear least square four parameter fits and either Genedata or GraphPad Prism (GraphPad Software, Inc.).

[2] abbreviates: Homo sapiens, HCT-116, 4 h pre-treatment.

SMILES strings stand for the structures.

Usually EC50 stands for the concentration needed to bring the measured effect to its halfway point. What is called IC50 is the concentration that gives 50% inhibition. A low value points to inhibition by little substance. As to `CN(c1nc(C(=O)Nc2cnoc2)c(O)c(=O)n1C)C(c1ccccc1)c1cccc(C#N)c1` (single isomer, unassigned) [Example 50], the EC50 in the experiment on HCT116 dual cells (setting [2]) was less than 1 µM. Besides, the figures for the IC50 (in experiment [1]; against full length human TREX1) were less than 1 µM and less than 0.1 µM, respectively.
For `CN(c1nc(C(=O)Nc2cnoc2)c(O)c(=O)n1C)C(c1ccccc1)c1cccc(C#N)c1` (single isomer, unassigned) [Example 51], the EC50 in the experiment on HCT116 dual cells (4 h pre-treatment) fell in the range of 1 to 10 µM. The IC50 in experiment [1] is less than 1 µM; on full length human TREX1, less than 0.1 µM.
`CN(c1nc(C(=O)Nc2cnoc2)c(O)c(=O)n1C)C(c1ccccc1)c1ncccc1Cl` (single isomer, unassigned) [Example 53]: the EC50 in the experiment on HCT116 dual cells (setting [2]) was less than 1 µM. Further, the IC50 in experiment [1] is less than 1 µM; against full length human TREX1 it was less than 0.1 µM.
For `CN(c1nc(C(=O)Nc2cnoc2)c(O)c(=O)n1C)C(c1ccccc1)c1ncccc1Cl` (single isomer, unassigned) [Example 54], in the experiment on HCT116 dual cells (4 h pre-treatment), the EC50 was less than 1 µM. The IC50 in experiment [1] was less than 1 µM; on full length human TREX1, less than 0.1 µM.
As for `CN(c1nc(C(=O)Nc2cnoc2)c(O)c(=O)n1C)C(c1ccccn1)c1ccccc1Cl` (single isomer, unassigned) [Example 56], the EC50 with HCT116 dual cells (setting [2]) was less than 1 µM. Further, the IC50 in experiment [1] was less than 1 µM; against full length human TREX1, less than 0.1 µM.
For the compound `CN(c1nc(C(=O)Nc2cnoc2)c(O)c(=O)n1C)C(c1ccccn1)c1ccccc1Cl` (single isomer, unassigned) [Example 57], in the experiment with HCT116 dual cells (4 h pre-treatment), the EC50 was less than 1 µM. Besides, the figures for the half-maximal inhibitory concentration (IC50) (in experiment [1]; against full length human TREX1) were less than 1 µM and less than 0.1 µM, respectively.
As for `Cc1cccnc1C(c1ccccc1)N(C)c1nc(C(=O)Nc2cnoc2)c(O)c(=O)n1C` (single isomer, unassigned) [Example 58], the EC50 with HCT116 dual cells (setting [2]) is 1 to 10 µM. In addition, the IC50 was 1 to 10 µM in experiment [1] and less than 0.1 µM at full length human TREX1.
As to `Cc1cccnc1C(c1ccccc1)N(C)c1nc(C(=O)Nc2cnoc2)c(O)c(=O)n1C` (single isomer, unassigned) [Example 59], the EC50 in the experiment on HCT116 dual cells (4 h pre-treatment) was less than 1 µM. For the same compound, the IC50 in experiment [1] is less than 1 µM; at full length human TREX1 it was less than 0.1 µM.
For `CN(c1nc(C(=O)Nc2cnoc2)c(O)c(=O)n1C)C(c1ccccn1)c1c(Cl)cccc1Cl` (single isomer, unassigned) [Example 60], the EC50 in the experiment with HCT116 dual cells (setting [2]) lay in the range of 1 to 10 µM. Besides, the values for the IC50 (in experiment [1]; at full length human TREX1) were 1 to 10 µM and less than 0.1 µM, respectively.
With `CN(c1nc(C(=O)Nc2cnoc2)c(O)c(=O)n1C)C(c1ccccn1)c1c(Cl)cccc1Cl` (single isomer, unassigned) [Example 61], the EC50 in the experiment with HCT116 dual cells (4 h pre-treatment) was less than 1 µM. The IC50 in experiment [1] was less than 1 µM; at full length human TREX1 it was less than 0.1 µM.
Take `Cc1cccc(Cl)c1C(c1ccccn1)N(C)c1nc(C(=O)Nc2cnoc2)c(O)c(=O)n1C` (single isomer, unassigned) [Example 62]: in the experiment on HCT116 dual cells (setting [2]), the EC50 is less than 1 µM. Further, the IC50 is less than 1 µM in experiment [1] and less than 0.1 µM on full length human TREX1.
With `Cc1cccc(Cl)c1C(c1ccccn1)N(C)c1nc(C(=O)Nc2cnoc2)c(O)c(=O)n1C` (single isomer, unassigned) [Example 63], the EC50 with HCT116 dual cells (4 h pre-treatment) lay in the range of 1 to 10 µM. The values for the IC50 (in experiment [1]; against full length human TREX1) were less than 1 µM and less than 0.1 µM, respectively.
Take `CN(c1nc(C(=O)Nc2cnoc2)c(O)c(=O)n1C)C(c1ccccc1Cl)C1CC1` (single isomer, unassigned) [Example 68]: the EC50 with HCT116 dual cells (setting [2]) was less than 1 µM. Besides, the IC50 in experiment [1] is less than 1 µM; against full length human TREX1, less than 0.1 µM.
Consider `CN(c1nc(C(=O)Nc2cnoc2)c(O)c(=O)n1C)C(c1ccccc1Cl)C1CC1` (single isomer, unassigned) [Example 69], for which the EC50 with HCT116 dual cells (4 h pre-treatment) was less than 1 µM. In addition, the IC50 in experiment [1] is less than 1 µM; at full length human TREX1 it was less than 0.1 µM.
`CC(c1c(Cl)cccc1Cl)N(C)c1nc(C(=O)Nc2cnoc2)c(O)c(=O)n1C` (single isomer, unassigned) [Example 70]: in the experiment with HCT116 dual cells (setting [2]), the EC50 is 1 to 10 µM. Besides, the IC50 in experiment [1] was less than 1 µM; against full length human TREX1, less than 0.1 µM.
As for `CC(c1c(Cl)cccc1Cl)N(C)c1nc(C(=O)Nc2cnoc2)c(O)c(=O)n1C` (single isomer, unassigned) [Example 71], the EC50 with HCT116 dual cells (4 h pre-treatment) is less than 1 µM. Moreover, the IC50 in experiment [1] was less than 1 µM; on full length human TREX1, less than 0.1 µM.
Take `Cc1ncc(C(c2ccccc2Cl)N(C)c2nc(C(=O)Nc3cnoc3)c(O)c(=O)n2C)cn1` (single isomer, unassigned) [Example 81]: the EC50 in the experiment with HCT116 dual cells (setting [2]) was less than 1 µM. For the same compound, the figures for the IC50 (in experiment [1]; against full length human TREX1) were less than 1 µM and less than 0.1 µM, respectively.
For `CN(c1nc(C(=O)Nc2cnoc2)c(O)c(=O)n1C)C(c1ccccc1)c1ccccc1C(F)(F)F` (single isomer, unassigned) [Example 83], the EC50 with HCT116 dual cells (setting [2]) was less than 1 µM. The IC50 in experiment [1] is less than 1 µM; against full length human TREX1, less than 0.1 µM.
In the case of `CN(c1nc(C(=O)Nc2cnoc2)c(O)c(=O)n1C)C(c1ccccc1)c1ccccc1C(F)(F)F` (single isomer, unassigned) [Example 84], in the experiment with HCT116 dual cells (4 h pre-treatment), the EC50 is less than 1 µM. The IC50 was less than 1 µM in experiment [1] and less than 0.1 µM against full length human TREX1.
